Reference: ChEMBL document CHEMBL3102765, “Unsymmetrical 1,5-diaryl-3-oxo-1,4-pentadienyls and their evaluation as antiparasitic agents” (Bioorg Med Chem, 2014)

Assays:
Leishmania amazonensis = test: Antiparasitic activity against promastigote form of Leishmania amazonensis MHOM/BR/Josefa after 72 hrs by hemocytometry; type: functional, organism-based
Trypanosoma cruzi [1] = test: Antiparasitic activity against epimastigote form of Trypanosoma cruzi Y after 96 hrs by hemocytometry; type: functional, organism-based
[2] = Cytotoxicity against monkey LLC-MK2 cells after 48 hrs by MTT assay; type: cell-based, Macaca mulatta; conditions: rhesus monkey
Trypanosoma cruzi [3] = test: Antiparasitic activity against trypomastigote form of Trypanosoma cruzi Y infected in LLCMK2 cells assessed as parasite lysis after 24 hrs by Pizzi-Brener method; type: functional, organism-based; conditions: LLC-MK2, 24 h
[4] = Cytotoxicity against mouse J774A1 cells after 48 hrs by MTT assay; type: cell-based, J774.A1

Structure (SMILES) | IC50 (Leishmania amazonensis) [µM] | IC50 (Trypanosoma cruzi [1]) [µM] | EC50 (Trypanosoma cruzi [3]) [µM] | CC50 at 48 h [2] [µM] | CC50 at 48 h [4] [µM]
CC(=O)/C(C)=C/c1ccc(N(C)C)cc1 | > 100 | > 100 | > 100 | 150 | 160
O=C(Cn1ccnc1[N+](=O)[O-])NCc1ccccc1 [BENZNIDAZOLE] | – | – | – | 615 | –
COc1ccc(/C=C(\C)C(=O)/C=C/c2ccccc2)cc1 | 22.3 | 16.7 | 73.3 | 44 | 54
C/C(=C\c1ccc(N(C)C)cc1)C(=O)/C=C/c1ccccc1 | 21.5 | 24.1 | 78.3 | 191 | 28.5
CC(=O)/C(C)=C/c1ccc([N+](=O)[O-])cc1 | > 100 | 82.2 | > 100 | 266 | 70.5
COc1ccc(/C=C/C(=O)/C(C)=C/c2ccc(OC)cc2)cc1 | 21.8 | 23.6 | > 100 | 75 | 34.1
COc1ccc(/C=C(\C)C(C)=O)cc1 | > 100 | > 100 | > 100 | 280 | 240
C/C(=C\c1ccc(N(C)C)cc1)C(=O)/C=C/c1ccc(N(C)C)cc1 | 20.5 | 25.1 | > 100 | 314 | 10
C/C(=C\c1ccc(N(C)C)cc1)C(=O)/C=C/c1ccc([N+](=O)[O-])cc1 | > 100 | > 100 | > 100 | 167 | 967
CC(=O)/C(C)=C/c1ccccc1 | > 100 | > 100 | > 100 | 688 | 742

Further lines, with some results ahead:

IC50 (Leishmania amazonensis) [µM] | IC50 (Trypanosoma cruzi [1]) [µM] | EC50 (Trypanosoma cruzi [3]) [µM] | Structure (SMILES) | CC50 at 48 h [2] [µM] | CC50 at 48 h [4] [µM]
15.3 | 15.9 | 71.7 | C/C(=C\c1ccccc1)C(=O)/C=C/c1ccccc1 | 33.6 | 34.5
20.1 | > 100 | > 100 | COc1ccc(/C=C/C(=O)/C(C)=C/c2ccc(N(C)C)cc2)cc1 | 285 | 34.3
3.4 | 1.8 | 15.4 | C/C(=C\c1ccc([N+](=O)[O-])cc1)C(=O)/C=C/c1ccc([N+](=O)[O-])cc1 | 32.5 | 43
13.4 | 3.5 | 17.5 | C/C(=C\c1ccc([N+](=O)[O-])cc1)C(=O)/C=C/c1ccccc1 | 264 | 47.3
11.6 | 16.9 | 65 | C/C(=C\c1ccccc1)C(=O)/C=C/c1ccc([N+](=O)[O-])cc1 | 43.3 | 26
20 | 13.3 | > 100 | C/C(=C\c1ccccc1)C(=O)/C=C/c1ccc(N(C)C)cc1 | 53 | 20.2
18 | 21.3 | > 100 | COc1ccc(/C=C(\C)C(=O)/C=C/c2ccc(N(C)C)cc2)cc1 | 411 | 36.2
15.5 | 10 | 73.3 | COc1ccc(/C=C/C(=O)/C(C)=C/c2ccc([N+](=O)[O-])cc2)cc1 | 172 | 36.6
0.06 | – | – | C[C@@H]1[C@H](O)[C@@H](C)/C=C/C=C/C=C/C=C/C=C/C=C/C=C/[C@H](O[C@@H]2O[C@H](C)[C@@H](O)[C@H](N)[C@@H]2O)C[C@@H]2O[C@](O)(C[C@@H](O)C[C@@H](O)[C@H](O)CC[C@@H](O)C[C@@H](O)CC(=O)O[C@H]1C)C[C@H](O)[C@H]2C(=O)O [AMPHOTERICIN B] | – | –
20.4 | 14.3 | > 100 | COc1ccc(/C=C/C(=O)/C(C)=C/c2ccccc2)cc1 | 93 | 51
12 | 14 | > 100 | C/C(=C\c1ccc([N+](=O)[O-])cc1)C(=O)/C=C/c1ccc(N(C)C)cc1 | 25.9 | 24.7
14.8 | 25.2 | > 100 | COc1ccc(/C=C(\C)C(=O)/C=C/c2ccc([N+](=O)[O-])cc2)cc1 | 20.1 | 30
